# US6433167B1, “Triazolo-1,4-diazepine compounds and medicinal composition containing the same” (Nikken Chemicals Co., Ltd., priority 1997, dated 2002)
# Experiments:
# [1] = biological target: T1, TxA2 synthesis in human blood platelet microsomes (Homo sapiens, UniProt P24557); experiment: TxA2 synthesis inhibiting action test (TxB2 by EIA); type: biochemical; settings: test compound final concentration 10^−7M, human blood platelet microsomes 50 μg protein/ml, prostaglandin H2 substrate
# T1 construct: containing human blood platelet microsomes (50 μg protein/ml); from tissue; host or cells: human blood platelet microsomes
# T1 sequence (P24557 1-533): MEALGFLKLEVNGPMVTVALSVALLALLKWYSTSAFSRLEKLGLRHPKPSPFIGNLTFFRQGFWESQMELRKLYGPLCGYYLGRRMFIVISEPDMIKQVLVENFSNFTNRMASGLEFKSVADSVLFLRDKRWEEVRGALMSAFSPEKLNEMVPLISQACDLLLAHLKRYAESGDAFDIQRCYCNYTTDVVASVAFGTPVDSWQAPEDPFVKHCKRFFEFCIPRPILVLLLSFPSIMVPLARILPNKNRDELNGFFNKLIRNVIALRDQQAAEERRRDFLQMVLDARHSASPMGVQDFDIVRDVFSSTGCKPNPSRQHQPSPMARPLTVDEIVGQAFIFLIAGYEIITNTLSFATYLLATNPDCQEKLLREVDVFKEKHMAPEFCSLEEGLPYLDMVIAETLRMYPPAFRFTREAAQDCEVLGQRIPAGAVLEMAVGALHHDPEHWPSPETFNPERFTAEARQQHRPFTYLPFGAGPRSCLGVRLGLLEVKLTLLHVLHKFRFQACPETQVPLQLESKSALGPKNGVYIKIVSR
# Method: 1 ml of a buffer (20 MM Tris-HCl buffer, 1 mM EDTA, pH 7.5) containing human blood platelet microsomes (50 μg protein/ml) and the test compound (final concentration 10^−7M) was agitated, then incubated at 0° C. for 30 minutes. To this was added prostaglandin H2 (100 ng/2 μl). This was incubated at 23° C. for 3 minutes to cause a reaction. Next, 1M hydrochloric acid was added to make the solution acidic and stop the reaction, then this was neutralized by 1M Tris-Base and centrifuged at 3000 rpm for 20 minutes. The amount of the TxB2 in the supernatant was measured by the EIA method (Cayman Co. kit).
# The test results are shown in Table II. a Further, as controls, UK-74,505 having a PAF antagonistic action and OKY-046 having a TxA2 synthesis inhibiting action were used.
# [2] = tested on: platelet activating factor (PAF)-induced aggregation of platelet rich plasma (PRP); experiment: PAF antagonistic action test (PAF-induced platelet aggregation in platelet rich plasma); type: cell-based, Japanese white rabbits; settings: test compound final concentration 10^−7M; PAF final concentration 17 nM; rabbit PRP, 37° C.
# Method: Japanese white rabbits (2.5 to 3.0 kg, Clean Experimental Animal Center) were used. Nine volumes of blood were taken with respect to one volume of 3.8% sodium citrate from the carotid under anesthesia by pentobarbitol. This was centrifuged at 1000 rpm and room temperature for 10 minutes. The top layer was used as the platelet rich plasma (PRP). The lower layer was further centrifuged at 3000 rpm and room temperature for 10 minutes to obtain the platelet poor plasma (PPP).
# 5 μl (final concentration 10^−7M) of the test compound was added to 90 μl of PRP. This was incubated at 37° C. for 3 minutes, then a platelet activating factor (PAF, final concentration 17 nM) was added to cause aggregation and the aggregation reaction was measured for 5 minutes using an aggrigometer (MC Medical, PAT-606).
# rats or mice = experiment: Acute toxicity test; type: in vivo; settings: administered intravenously, 10 mg/kg
SMILES,inhibition at 0.1 µM ([1]; read-out: TxA2 synthesis inhibiting action Rate of suppression at 10^−7 M (%)) [%],PAF antagonistic action Rate of suppression at 10^−7 M (%) [2] [%],TxA2 synthesis inhibiting action Rate of suppression at 10^−7 M (%) [1] [%],Deaths after intravenous administration (rats or mice)
"CCOC(=O)CCCCON=C(c1cccnc1)c1ccccc1C(=O)N1CCc2c(sc3c2C(c2ccccc2Cl)=NC(C)c2nnc(C)n2-3)C1 (mixture of isomers) [Compound 1, 6-(2-Chlorophenyl)-3-[2-[((E/Z)-4-ethoxycarbonylbutyloxyimino)(3-pyridyl)methylene]phenylcarbonyl]-8,11-dimethyl-2,3,4,5-tetrahydro-8H-pyrido[4′,3′:4,5]thieno[3,2-f][1,2,4]triazolo[4,3-a][1,4]diazepine]",53,82.0,–,–
"CCOC(=O)CCCCON=C(c1ccc(CC(=O)N2CCc3c(sc4c3C(c3ccccc3Cl)=NC(C)c3nnc(C)n3-4)C2)cc1)c1cccnc1 (mixture of isomers) [Compound 4, 6-(2-Chlorophenyl)-3-[4-[((E/Z)-4-ethoxycarbonylbutyloxyimino)(3-pyridyl)methyl]phenylmethylcarbonyl]-8,11-dimethyl-2,3,4,5-tetrahydro-8H-pyrido[4′,3′:4,5]thieno[3,2-f](1,2,4]triazolo[4,3-a][1,4]diazepine]",–,94.6,79.6,no deaths were observed
"CCOC(=O)CCCCON=C(c1cccnc1)c1cccc(CCCC(=O)N2CCc3c(sc4c3C(c3ccccc3Cl)=NC(C)c3nnc(C)n3-4)C2)c1 (mixture of isomers) [Compound 5, 6-(2-Chlorophenyl)-3-[3-[3-[((E/Z)-4-ethoxycarbonylbutyloxyimino)(3-pyridyl)methyl]phenyl]propylcarbonyl]-8,11-dimethyl-2,3,4,5-tetrahydro-8H-pyrido[4′,3′:4,5]thieno[3,2-f][1,2,4]triazolo[4,3-a][1,4]diazepine]",–,95.5,40.3,–
"CCOC(=O)CCCCON=C(c1ccc(COCC(=O)N2CCc3c(sc4c3C(c3ccccc3Cl)=NC(C)c3nnc(C)n3-4)C2)cc1)c1cccnc1 (mixture of isomers) [Compound 6, 6-(2-Chlorophenyl)-3-[4-[((E/Z)-4-ethoxycarbonylbutyloxyimino)(3-pyridyl)methyl]phenylmethyloxymethylcarbonyl]-8,11-dimethyl-2,3,4,5-tetrahydro-8H-pyrido[4′,3′:4,5]thieno[3,2-f][1,2,4]triazolo[4,3-a][1,4]diazepine]",–,79.8,75.6,no deaths were observed
"CCOC(=O)CCCCON=C(c1cccnc1)c1cccc(CN2CCc3c(sc4c3C(c3ccccc3Cl)=NC(C)c3nnc(C)n3-4)C2)c1 (mixture of isomers) [Compound 7, 6-(2-Chlorophenyl)-3-[3-[((E/Z)-4-ethoxycarbonylbutyloxyimino)(3-pyridyl)methyl]phenylmethyl]-8,11-dimethyl-2,3,4,5-tetrahydro-8H-pyrido[4′,3′:4,5]thieno[3,2-f][1,2,4]triazolo[4,3-a][1,4]diazepine]",–,94.0,58.2,–
"Cc1nnc2n1-c1sc3c(c1C(c1ccccc1Cl)=NC2C)CCN(Cc1cccc(C(=NOCCCCC(=O)O)c2cccnc2)c1)C3 (mixture of isomers) [Compound 8, 6-(2-Chlorophenyl)-3-[3-[((E/Z)-4-carboxydibutyloxyimino)(3-pyridyl)methyl]phenylmethyl]-8,11-dimethyl-2,3,4,5-tetrahydro-8H-pyrido[4′,3′:4,5]thieno[3,2-f][1,2,4]triazolo[4,3-a][1,4]diazepine]",–,52.0,81.7,–
"CCOC(=O)CCCCC=C(c1ccc(CN2CCc3c(sc4c3C(c3ccccc3Cl)=NC(C)c3nnc(C)n3-4)C2)cc1)c1cccnc1 (mixture of isomers) [Compound 11, 6-(2-Chlorophenyl)-3-[4-[((E/Z)-5-ethoxycarbonylpentylidene)(3-pyridyl)methyl]phenylmethyl]-8,11-dimethyl-2,3,4,5-tetrahydro-8H-pyrido[4′,3′:4,5]thieno[3,2-f][1,2,4]triazolo[4,3-a][1,4]diazepine]",–,94.2,83.7,–
"O=C(O)/C=C/c1ccc(Cn2ccnc2)cc1 [OKY-046, reference compound]",–,0,84.5,–
"CCOC(=O)C1=C(c2ccc(-n3c(C)nc4cnccc43)cc2)NC(C)=C(C(=O)Nc2ccccn2)C1c1ccccc1Cl (centres unmarked) [UK-74,505, reference compound]",–,89.0,0,–
